Measured values: patent US20240116921A1, “LACTAM (HETERO)[…] DERIVATIVES AS INHIBITORS OF ERBB2” (EnLiven Therapeutics, Inc., priority 2020, published 2024)

Experiments:
[1] = target: T1, phosphorylated EGFR (pEGFR) (Homo sapiens, UniProt P00533); experiment: Detection of phosphorylated EGFR (pEGFR) in EGF-stimulated A431 cells; type: cell-based; conditions: A431 cells (10% FBS), 4 hours incubation, EGF 30 ng/mL 10 minutes, AlphaLISA
T1 construct: performed to measure phosphorylated EGFR levels using A431 cells (10% FBS); endogenous in cells; host or cells: A431
Summary of the method: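 A431 cells in 10% FBS were preincubated with compound for 4 h at 37 °C, then stimulated with EGF (30 ng/mL final) for 10 min. pEGFR in lysates was read by AlphaLISA. % inhibition was calculated against DMSO and staurosporine-treated controls, and IC50 came from a four-parameter curve fit.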

[2] = target: Ba/F3 ERBB2-T798M (Homo sapiens, UniProt P04626, T798M, cells depend on it); experiment: Cell viability assay, Ba/F3 ERBB2-T798M; type: cell-based, mouse; conditions: 72 hours, CellTiter Glo, read-out: IC50, cell viability, Ba/F3 ERBB2-T798M
Method: (§1) Cells were treated with compounds, and cell viability was measured as a metric of kinase inhibition.
(§2) The Ba/F3 cell line is IL-3-dependent mouse cell line derived from the C3H mouse strain. Ba/F3 cell lines were engineered to express human ERBB2 or EGFR kinases, rendering the cells IL-3 independent. The lines were generated via retroviral transduction utilizing a Moloney murine leukemia virus (MMLV) promoter, and constructs are stably integrated into the cell genome. The sequences of the ERBB2 and EGFR genes used were NCBI Reference Sequences NM_004448.3 and NM_005228.3, respectively.
(§3) Similarly, Ba/F3 cell lines engineered to express EGFR, ERBB2, or ERBB2 mutants were grown, harvested, counted and seeded at 3000 cells per well in 96-well plates. A subset of wells contained media only (low control, “LC”).
(§4) Table B1 provides the growth media and number of cells seeded per well for the each cell line.
(§5) Plates were placed in a 37° C., 5% CO2 incubator for 72 hours. Plates were then removed from the incubator and equilibrated for 15 minutes at room temperature. 40 μl of CellTiter Glo reagent (Promega) was added to measure the relative level of metabolically active cells by quantifying intracellular ATP concentrations. Plates were incubated for 30 minutes at room temperature, and luminescence was measured. Percent viability was normalized to a vehicle control only using the following formula: % viability=100×(Lumsample−LumLC)/(LumHC−Lum^LC). Graphical curves were fitted using a nonlinear regression model with a sigmoidal dose response.

[3] = target: BaF3_EGFR-H773_V774insNPH (Homo sapiens, UniProt P00533, DUP771-773, cells depend on it); experiment: Cell viability assay, BaF3_EGFR-H773_V774insNPH; type: cell-based, mouse; conditions: 72 hours, CellTiter Glo, read-out: IC50, cell viability, BaF3_EGFR-H773_V774insNPH
Method: as §1, §2, §3, §4
(§6) Plates were placed in a 37° C., 5% CO2 incubator for 72 hours. Plates were then removed from the incubator and equilibrated for 15 minutes at room temperature. 40 μl of CellTiter Glo reagent (Promega) was added to measure the relative level of metabolically active cells by quantifying intracellular ATP concentrations. Plates were incubated for 30 minutes at room temperature, and luminescence was measured. […]

[4] = target: Ba/F3 ERBB2-V777_G778insGC (Homo sapiens, UniProt P04626, INS778CG, cells depend on it); experiment: Cell viability assay, Ba/F3 ERBB2-V777_G778insGC; type: cell-based, mouse; conditions: 72 hours, CellTiter Glo, read-out: IC50, cell viability, Ba/F3 ERBB2-V777_G778insGC
Method: as §1, §2, §3, §4, §5

[5] = target: Ba/F3 ERBB2 wt (Homo sapiens, UniProt P04626); experiment: Cell viability assay, Ba/F3 ERBB2 wt; type: cell-based, mouse; conditions: Ba/F3 ERBB2 wt cells, 72 hours, CellTiter Glo; read-out: IC50, cell viability, Ba/F3 ERBB2 wt
Method: as §1, §2, §3, §4, §5

[6] = target: Ba/F3 ERBB2-V777L (Homo sapiens, UniProt P04626, V777L, cells depend on it); experiment: Cell viability assay, Ba/F3 ERBB2-V777L; type: cell-based, mouse; conditions: 72 hours, CellTiter Glo, read-out: IC50, cell viability, Ba/F3 ERBB2-V777L
Method: as §1, §2, §3, §4, §5

[7] = target: Ba/F3 ERBB2-G776VC (Homo sapiens, UniProt P04626, DELINS776-776VC, cells depend on it); experiment: Cell viability assay, Ba/F3 ERBB2-G776VC; type: cell-based, mouse; conditions: 72 hours, CellTiter Glo, read-out: IC50, cell viability, Ba/F3 ERBB2-G776VC
Method: as §1, §2, §3, §4, §5

[8] = target: BaF3-EGFR-V769_D770insASV (Homo sapiens, UniProt P00533, DUP767-769, cells depend on it); experiment: Cell viability assay, BaF3-EGFR-V769_D770insASV; type: cell-based, mouse; conditions: 72 hours, CellTiter Glo, read-out: IC50, cell viability, BaF3-EGFR-V769_D770insASV
Method: as §1, §2, §3, §4, §6

[9] = target: Ba/F3 ERBB2-L755S (Homo sapiens, UniProt P04626, L755S, cells depend on it); experiment: Cell viability assay, Ba/F3 ERBB2-L755S; type: cell-based, mouse; conditions: 72 hours, CellTiter Glo, read-out: IC50, cell viability, Ba/F3 ERBB2-L755S
Method: as §1, §2, §3, §4, §5

[10] = target: BaF3_EGFR-D770-N771insSVD (Homo sapiens, UniProt P00533, DUP768-770, cells depend on it); experiment: Cell viability assay, BaF3_EGFR-D770-N771insSVD; type: cell-based, mouse; conditions: 72 hours, CellTiter Glo, read-out: IC50, cell viability, BaF3_EGFR-D770-N771insSVD
Method: as §1, §2, §3, §4, §6

[11] = test system: MDA-MB-175VII; experiment: Cell viability assay (CellTiter Glo), MDA-MB-175VII; type: cell-based; conditions: Homo sapiens; MDA MB 175VII cells, 72 hours, CellTiter Glo; read-out: IC50, cell viability, MDA MB 175VII
Method: as §1, §2, §3, §4, §5

Chain of Ba/F3 ERBB2-V777L (P04626 whole entry V777L): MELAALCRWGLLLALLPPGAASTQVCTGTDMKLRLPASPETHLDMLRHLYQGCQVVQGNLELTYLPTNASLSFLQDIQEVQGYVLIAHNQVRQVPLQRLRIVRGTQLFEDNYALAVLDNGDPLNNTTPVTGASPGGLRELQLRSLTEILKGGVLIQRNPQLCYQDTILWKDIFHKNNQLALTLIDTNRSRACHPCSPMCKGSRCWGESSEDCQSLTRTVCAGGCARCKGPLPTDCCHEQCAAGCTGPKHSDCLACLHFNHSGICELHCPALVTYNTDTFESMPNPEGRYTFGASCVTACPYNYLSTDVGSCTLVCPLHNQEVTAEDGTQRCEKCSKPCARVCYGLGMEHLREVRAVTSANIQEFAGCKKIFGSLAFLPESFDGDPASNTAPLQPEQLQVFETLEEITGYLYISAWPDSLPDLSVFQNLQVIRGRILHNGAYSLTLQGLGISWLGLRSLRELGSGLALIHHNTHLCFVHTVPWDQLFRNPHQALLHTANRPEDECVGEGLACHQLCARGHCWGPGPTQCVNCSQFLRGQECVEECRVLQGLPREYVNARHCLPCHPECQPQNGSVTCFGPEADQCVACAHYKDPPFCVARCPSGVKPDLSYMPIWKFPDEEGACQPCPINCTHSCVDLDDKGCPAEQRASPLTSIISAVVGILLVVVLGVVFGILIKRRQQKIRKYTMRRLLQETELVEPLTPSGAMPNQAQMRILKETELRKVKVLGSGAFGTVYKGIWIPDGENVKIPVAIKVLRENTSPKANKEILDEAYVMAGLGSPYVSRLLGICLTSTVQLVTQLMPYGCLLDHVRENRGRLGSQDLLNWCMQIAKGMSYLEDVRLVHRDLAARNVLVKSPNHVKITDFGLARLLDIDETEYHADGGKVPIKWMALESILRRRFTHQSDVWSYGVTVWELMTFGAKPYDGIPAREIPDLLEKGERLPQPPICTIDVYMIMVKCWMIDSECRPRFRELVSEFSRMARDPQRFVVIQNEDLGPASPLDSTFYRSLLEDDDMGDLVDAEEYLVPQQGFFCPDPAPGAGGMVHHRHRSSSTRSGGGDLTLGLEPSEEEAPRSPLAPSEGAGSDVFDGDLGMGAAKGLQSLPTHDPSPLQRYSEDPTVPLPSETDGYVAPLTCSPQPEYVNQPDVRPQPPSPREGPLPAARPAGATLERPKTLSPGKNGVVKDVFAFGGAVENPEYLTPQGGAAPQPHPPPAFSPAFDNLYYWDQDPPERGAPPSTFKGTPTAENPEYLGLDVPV
T1 sequence (P00533 25-1210): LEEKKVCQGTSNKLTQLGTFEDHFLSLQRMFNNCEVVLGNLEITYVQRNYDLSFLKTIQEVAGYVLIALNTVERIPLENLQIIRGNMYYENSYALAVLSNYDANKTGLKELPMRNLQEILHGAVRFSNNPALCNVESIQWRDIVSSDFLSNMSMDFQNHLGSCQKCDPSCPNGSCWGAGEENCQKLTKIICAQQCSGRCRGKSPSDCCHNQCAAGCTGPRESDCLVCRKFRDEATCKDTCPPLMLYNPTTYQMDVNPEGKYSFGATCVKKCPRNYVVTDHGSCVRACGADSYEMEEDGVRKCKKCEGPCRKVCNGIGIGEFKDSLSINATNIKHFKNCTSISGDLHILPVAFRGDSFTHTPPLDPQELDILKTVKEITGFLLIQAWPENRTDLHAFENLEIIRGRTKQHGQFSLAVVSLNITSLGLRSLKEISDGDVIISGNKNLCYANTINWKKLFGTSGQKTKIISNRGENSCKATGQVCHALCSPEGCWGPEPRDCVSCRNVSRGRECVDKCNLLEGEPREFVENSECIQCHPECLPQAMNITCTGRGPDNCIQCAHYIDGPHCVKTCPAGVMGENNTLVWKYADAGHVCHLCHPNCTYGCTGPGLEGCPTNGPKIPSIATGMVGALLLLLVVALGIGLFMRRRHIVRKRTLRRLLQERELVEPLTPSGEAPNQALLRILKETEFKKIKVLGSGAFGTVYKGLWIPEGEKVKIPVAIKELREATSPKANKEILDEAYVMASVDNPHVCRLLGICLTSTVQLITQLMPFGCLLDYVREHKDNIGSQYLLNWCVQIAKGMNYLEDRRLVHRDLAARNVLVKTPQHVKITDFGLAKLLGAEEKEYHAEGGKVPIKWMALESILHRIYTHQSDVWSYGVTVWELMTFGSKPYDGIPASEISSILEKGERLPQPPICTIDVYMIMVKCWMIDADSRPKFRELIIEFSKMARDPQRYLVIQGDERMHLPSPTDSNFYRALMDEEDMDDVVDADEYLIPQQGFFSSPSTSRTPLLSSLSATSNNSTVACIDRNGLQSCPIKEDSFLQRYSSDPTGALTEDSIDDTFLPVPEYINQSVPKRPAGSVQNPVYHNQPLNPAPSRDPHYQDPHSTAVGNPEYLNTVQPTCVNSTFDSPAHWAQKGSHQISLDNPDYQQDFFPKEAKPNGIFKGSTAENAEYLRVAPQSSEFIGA
Chain of Ba/F3 ERBB2-G776VC (P04626 with tags, fused parts or gaps DELINS776-776VC): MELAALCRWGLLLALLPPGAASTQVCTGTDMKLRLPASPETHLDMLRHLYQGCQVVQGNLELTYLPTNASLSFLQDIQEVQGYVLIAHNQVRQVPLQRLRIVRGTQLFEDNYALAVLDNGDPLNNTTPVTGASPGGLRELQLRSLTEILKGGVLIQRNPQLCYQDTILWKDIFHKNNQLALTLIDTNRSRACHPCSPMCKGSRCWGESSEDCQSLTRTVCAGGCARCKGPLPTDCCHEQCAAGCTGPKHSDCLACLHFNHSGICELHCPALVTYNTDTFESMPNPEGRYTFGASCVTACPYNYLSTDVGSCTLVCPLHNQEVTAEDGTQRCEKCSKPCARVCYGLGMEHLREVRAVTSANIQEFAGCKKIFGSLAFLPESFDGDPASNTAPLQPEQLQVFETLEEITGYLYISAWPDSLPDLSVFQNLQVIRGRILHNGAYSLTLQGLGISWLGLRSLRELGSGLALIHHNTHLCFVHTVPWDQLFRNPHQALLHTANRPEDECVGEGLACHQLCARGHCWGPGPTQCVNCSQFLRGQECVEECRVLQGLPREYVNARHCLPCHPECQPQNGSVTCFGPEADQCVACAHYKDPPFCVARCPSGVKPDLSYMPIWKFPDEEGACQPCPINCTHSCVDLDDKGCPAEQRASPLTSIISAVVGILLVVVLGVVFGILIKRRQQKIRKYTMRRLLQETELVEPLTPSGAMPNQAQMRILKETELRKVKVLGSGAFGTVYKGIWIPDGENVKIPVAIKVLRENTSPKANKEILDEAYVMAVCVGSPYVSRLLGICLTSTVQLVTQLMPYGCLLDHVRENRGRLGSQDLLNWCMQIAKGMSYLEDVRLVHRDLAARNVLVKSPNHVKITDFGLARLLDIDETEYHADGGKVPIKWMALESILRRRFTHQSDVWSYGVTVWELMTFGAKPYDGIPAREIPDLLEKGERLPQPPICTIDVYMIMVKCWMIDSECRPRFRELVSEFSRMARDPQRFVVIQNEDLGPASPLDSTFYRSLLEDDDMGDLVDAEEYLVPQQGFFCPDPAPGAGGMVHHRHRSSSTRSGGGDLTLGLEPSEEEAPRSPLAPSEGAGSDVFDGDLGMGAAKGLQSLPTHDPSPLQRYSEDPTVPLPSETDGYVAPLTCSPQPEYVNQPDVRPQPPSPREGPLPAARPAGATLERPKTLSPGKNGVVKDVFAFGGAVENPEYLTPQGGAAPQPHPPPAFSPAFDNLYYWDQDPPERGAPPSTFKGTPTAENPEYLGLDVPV
Chain of Ba/F3 ERBB2-L755S (P04626 whole entry L755S): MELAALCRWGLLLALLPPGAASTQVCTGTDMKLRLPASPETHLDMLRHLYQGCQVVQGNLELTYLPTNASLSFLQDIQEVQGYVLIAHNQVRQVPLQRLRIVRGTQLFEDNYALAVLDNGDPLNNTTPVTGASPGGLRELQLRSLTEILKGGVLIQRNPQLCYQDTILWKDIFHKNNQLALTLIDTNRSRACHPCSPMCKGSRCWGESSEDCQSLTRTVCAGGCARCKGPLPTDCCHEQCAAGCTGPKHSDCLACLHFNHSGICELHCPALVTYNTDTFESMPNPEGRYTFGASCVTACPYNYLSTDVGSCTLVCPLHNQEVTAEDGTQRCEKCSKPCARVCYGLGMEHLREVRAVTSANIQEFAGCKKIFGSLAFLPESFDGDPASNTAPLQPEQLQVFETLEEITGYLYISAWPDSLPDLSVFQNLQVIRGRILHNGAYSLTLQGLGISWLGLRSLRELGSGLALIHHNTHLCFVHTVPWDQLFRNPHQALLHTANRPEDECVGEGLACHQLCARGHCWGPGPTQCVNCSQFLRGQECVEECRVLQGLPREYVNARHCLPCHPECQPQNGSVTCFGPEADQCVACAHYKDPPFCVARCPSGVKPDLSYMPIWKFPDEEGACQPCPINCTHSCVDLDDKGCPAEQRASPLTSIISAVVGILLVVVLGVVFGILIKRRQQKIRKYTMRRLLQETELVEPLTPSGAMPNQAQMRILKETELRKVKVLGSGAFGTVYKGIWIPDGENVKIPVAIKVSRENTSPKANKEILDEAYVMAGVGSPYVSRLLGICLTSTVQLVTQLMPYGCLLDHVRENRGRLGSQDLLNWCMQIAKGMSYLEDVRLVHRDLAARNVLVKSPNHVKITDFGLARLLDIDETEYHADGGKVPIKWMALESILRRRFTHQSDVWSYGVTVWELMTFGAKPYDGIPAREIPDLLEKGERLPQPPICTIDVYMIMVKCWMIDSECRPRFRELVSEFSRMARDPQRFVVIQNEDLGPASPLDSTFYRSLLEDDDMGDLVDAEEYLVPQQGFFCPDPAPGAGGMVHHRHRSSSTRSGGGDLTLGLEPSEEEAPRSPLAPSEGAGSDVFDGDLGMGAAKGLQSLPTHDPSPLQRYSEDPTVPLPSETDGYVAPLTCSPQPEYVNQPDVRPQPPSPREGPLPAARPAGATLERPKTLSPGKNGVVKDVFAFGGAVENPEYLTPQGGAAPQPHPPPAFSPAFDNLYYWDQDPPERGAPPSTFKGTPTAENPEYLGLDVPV

SMILES	IC50 [1]	GI50 [2]	GI50 [3]	GI50 [4]	GI50 [5]	GI50 [6]	GI50 [7]	GI50 [8]	GI50 [9]	GI50 [10]	IC50 [11]
C=C1CCN(c2ccc3ncnc(Nc4ccc(Oc5ccn6ncnc6c5)c(C)c4)c3c2)C1=O [Compound 1, 1-[4-[(3-methyl-4-[[1,2,4]triazolo[1,5-a]pyridin-7-yloxy]phenyl)amino]quinazolin-6-yl]-3-methylidenepyrrolidin-2-one]	1.23 µM	0.151 µM	9.83 µM	0.00082 µM	0.0023 µM	0.00041 µM	0.016 µM	4.51 µM	0.013 µM	4.06 µM	0.015 µM
C=C1CCN(c2ccc3ncnc(Nc4ccc(Oc5ccn6ccnc6c5)c(C)c4)c3c2)C1=O [Compound 4, 1-[4-[(4-[imidazo[1,2-a]pyridin-7-yloxy]-3-methylphenyl)amino]quinazolin-6-yl]-3-methylidenepyrrolidin-2-one]	0.205 µM	0.154 µM	–	0.0018 µM	0.0039 µM	0.0013 µM	0.0075 µM	–	0.014 µM	–	–
